Molecules are shown by their SMILES. Bounds are passed on as bounds.

Chain of TRKA kinase (P04629 33-796): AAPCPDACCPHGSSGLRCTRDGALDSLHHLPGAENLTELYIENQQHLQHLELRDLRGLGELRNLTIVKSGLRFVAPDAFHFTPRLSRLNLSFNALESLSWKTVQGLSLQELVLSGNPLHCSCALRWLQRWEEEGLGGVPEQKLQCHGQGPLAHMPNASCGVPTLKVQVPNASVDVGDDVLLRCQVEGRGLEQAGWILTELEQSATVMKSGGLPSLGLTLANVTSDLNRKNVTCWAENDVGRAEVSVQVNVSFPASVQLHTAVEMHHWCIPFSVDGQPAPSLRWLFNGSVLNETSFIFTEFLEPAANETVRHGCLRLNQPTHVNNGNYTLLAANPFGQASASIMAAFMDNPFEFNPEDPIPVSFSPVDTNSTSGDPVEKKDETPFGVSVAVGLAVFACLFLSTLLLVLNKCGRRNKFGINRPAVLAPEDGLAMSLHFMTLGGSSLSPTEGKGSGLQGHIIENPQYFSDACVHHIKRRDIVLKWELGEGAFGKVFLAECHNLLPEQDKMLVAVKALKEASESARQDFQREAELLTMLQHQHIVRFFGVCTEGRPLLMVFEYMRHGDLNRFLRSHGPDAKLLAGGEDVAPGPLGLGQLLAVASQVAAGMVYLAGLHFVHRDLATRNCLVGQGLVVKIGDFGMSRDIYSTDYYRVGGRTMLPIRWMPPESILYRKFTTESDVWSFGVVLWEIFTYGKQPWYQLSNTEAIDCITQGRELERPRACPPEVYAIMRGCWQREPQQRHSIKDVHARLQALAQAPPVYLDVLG

This assay has as its target TRKA kinase (Homo sapiens (Human), UniProt P04629). The assay can be described thus: Assay of small molecular compounds for inhibiting the activity of TRKA kinase (LANCE TR-FRET). The class given is biochemical. In a few lines:
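TRKA (supplied as 2 nM 2× solution) was pre-reacted with compounds for 5 min at room temperature before a 4× ULight-TK peptide/ATP mix (400 nM/40 μM) started the 60-min dark reaction at 1% DMSO. After stop and 60-min detection, TR-FRET was read.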
By IC50 is commonly meant the concentration that inhibits the measured activity by half. Take `CCOc1ccn(-c2ccc(F)cc2)c(=O)c1C(=O)Nc1ccc(Oc2ccnc3cc(OCCCN(C)CCOC)c4c(c23)OCCO4)c(F)c1` [Example 70, N-(4-((5-(3-((2-methoxyethyl)(methyl)amino)propoxy)-2,3-dihydro-[1,4]dioxino[2,3-f]quinolin-10-yl)oxy)-3-fluorophenyl)-4-ethoxy-1-(4-fluorophenyl)-2-oxo-1,2-dihydropyridine-3-carboxamide]: the IC50 was below 50 nM.
For `CCOc1ccn(-c2ccc(F)cc2)c(=O)c1C(=O)Nc1ccc(Oc2ccnc3cc(OCCCN(C)C4CCC4)c4c(c23)OCCO4)c(F)c1` [Example 71, N-(4-((5-(3-(cyclobutyl(methyl)amino)propoxy)-2,3-dihydro-[1,4]dioxino[2,3-f]quinolin-10-yl)oxy)-3-fluorophenyl)-4-ethoxy-1-(4-fluorophenyl)-2-oxo-1,2-dihydropyridine-3-carboxamide], the IC50 is below 50 nM.
The molecule `CCOc1ccn(-c2ccc(F)cc2)c(=O)c1C(=O)Nc1ccc(Oc2ccnc3cc(OCCCN4CCOCC4)c4c(c23)OCCO4)c(Cl)c1` [Example 72, N-(4-((5-(3-morpholinopropoxy)-2,3-dihydro-[1,4]dioxino[2,3-f]quinolin-10-yl)oxy)-3-chlorophenyl)-4-ethoxy-1-(4-fluorophenyl)-2-oxo-1,2-dihydropyridine-3-carboxamide] showed an IC50 below 50 nM.
With `CCOc1ccn(-c2ccc(F)cc2)c(=O)c1C(=O)Nc1ccc(Oc2ccnc3cc(OCCCN4CCOCC4)c4c(c23)OCCO4)cc1Cl` [Example 73, N-(2-chloro-4-((5-(3-morpholinopropoxy)-2,3-dihydro-[1,4]dioxino[2,3-f]quinolin-10-yl)oxy)phenyl)-4-ethoxy-1-(4-fluorophenyl)-2-oxo-1,2-dihydropyridine-3-carboxamide], the IC50 was below 50 nM.
The same measure for `CC(C)n1cc(C(=O)Nc2ccc(Oc3ccnc4cc(OCCCN5CCS(=O)(=O)CC5)c5c(c34)OCCO5)c(F)c2)c(=O)n(-c2ccc(F)cc2)c1=O` [Example 76, N-(3-fluoro-4-((5-(3-(1,1-dioxidothiomorpholino)propoxy)-2,3-dihydro-[1,4]dioxino[2,3-f]quinolin-10-yl)oxy)phenyl)-3-(4-fluorophenyl)-1-isopropyl-2,4-dioxo-1,2,3,4-tetrahydropyrimidine-5-carboxamide]: below 50 nM; for `COCCCOc1cc2nccc(Oc3ccc(NC(=O)c4cn(C)c(=O)n(-c5ccc(F)cc5)c4=O)cc3F)c2c2c1OCCO2` [Example 80, N-(3-fluoro-4-((5-(3-methoxypropoxy)-2,3-dihydro-[1,4]dioxino[2,3-f]quinolin-10-yl)oxy)phenyl)-3-(4-fluorophenyl)-1-methyl-2,4-dioxo-1,2,3,4-tetrahydropyrimidine-5-carboxamide]: below 50 nM.
As for `CC(C)Oc1cc2nccc(Oc3ccc(NC(=O)c4cn(C)c(=O)n(-c5ccc(F)cc5)c4=O)cc3F)c2c2c1OCCO2` [Example 88, N-(3-fluoro-4-((5-isopropoxy-2,3-dihydro-[1,4]dioxino[2,3-f]quinolin-10-yl)oxy)phenyl)-3-(4-fluorophenyl)-1-methyl-2,4-dioxo-1,2,3,4-tetrahydropyrimidine-5-carboxamide], the IC50 is 50 to 500 nM.
The same measure for `Cn1cc(C(=O)Nc2ccc(Oc3ccnc4cc(OC5CCOCC5)c5c(c34)OCCO5)c(F)c2)c(=O)n(-c2ccc(F)cc2)c1=O` [Example 91, N-(3-fluoro-4-((5-((tetrahydropyran-4-yl)oxy)-2,3-dihydro-[1,4]dioxino[2,3-f]quinolin-10-yl)oxy)phenyl)-3-(4-fluorophenyl)-1-methyl-2,4-dioxo-1,2,3,4-tetrahydropyrimidine-5-carboxamide]: below 50 nM.

Source of the values: patent US12202835B2, “Substituted aromatic ring-linked dioxinoquinazolines and dioxinoquinolines as kinase inhibitors” (BEIJING SCITECH-MQ PHARMACEUTICALS LIMITED, priority 2018, dated 2025).
